molecular target: T1, TNIK (Homo sapiens, UniProt Q9UKE5); experiment: ADP-Glo Kinase Assay, inhibition activity on TNIK; format: biochemical; details: not given
T1 construct: purchased Promega V4158
Procedure: The inhibition activities on TNIK, IKKε and TBK1 were measured by a luminometer, TNIK/IKKε/TBK1 Kinase Enzyme System (Promega, Ca# V4158; Invitrogen, PR8031B, Promega, Ca# V3991) and ADP-Glo Kinase Assay using ADP-Glo™ Kinase Analysis Kit (Promega, Ca# V9101) and a kinase reaction buffer [40 mM Tris(pH 7.5), 20 mM MgCl2, 0.1 mg/mL BSA] in accordance with the manufacturer's protocol.

T1 sequence (Q9UKE5 1-367 limits assumed): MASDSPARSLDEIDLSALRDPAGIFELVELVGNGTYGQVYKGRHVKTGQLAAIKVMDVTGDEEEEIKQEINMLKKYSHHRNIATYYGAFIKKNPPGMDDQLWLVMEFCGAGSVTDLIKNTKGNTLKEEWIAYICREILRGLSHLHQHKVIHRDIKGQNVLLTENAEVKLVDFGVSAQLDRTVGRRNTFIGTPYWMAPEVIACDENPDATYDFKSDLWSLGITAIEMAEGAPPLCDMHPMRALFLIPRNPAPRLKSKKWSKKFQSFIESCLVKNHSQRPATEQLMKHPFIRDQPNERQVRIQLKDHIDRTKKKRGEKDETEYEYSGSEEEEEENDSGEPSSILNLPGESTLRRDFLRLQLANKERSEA

Row | TNIK (μM) | Structure (SMILES)
1 | Insoluble | CC(=O)c1ccc(-c2ccc(NC(=O)c3ccccc3)c3c2CNC3=O)cc1 [Example 13, N-(7-(4-acetylphenyl)-3-oxoisoindolin-4-yl)benzamide]
2 | Insoluble | O=C(Nc1ccc(Nc2ccccn2)c2c1C(=O)NC2)c1ccc(F)cc1 [Example 428, 4-Fluoro-N-(3-oxo-7-(pyridin-2-ylamino)isoindolin-4-yl) benzamide]
3 | Insoluble | COc1ccc(C(=O)Nc2ccc(-c3ccccc3)c3c2C(=O)NC3)cc1OC [Example 102, 3,4-Dimethoxy-N-(3-oxo-7-phenylisoindolin-4-yl)benzamide]

same assay, conditions: TNIK (μM)

Row | Structure (SMILES) | IC50 [µM]
4 | O=C1NCc2c(-c3ccccc3)ccc(NCCCl)c21 [Example 253, 7-((2-Chloroethyl)amino)-4-phenylisoindolin-1-one] | 2.6

same assay, conditions: read-out: TNIK

Row | Structure (SMILES) | IC50 [µM]
5 | O=C(Nc1ccc(-c2ccc(Cl)cc2Cl)c2c1C(=O)NC2)c1ccccc1 [Example 18, N-(7-(2,4-dichlorophenyl)-3-oxoisoindolin-4-yl)benzamide] | > 20
6 | CS(=O)(=O)c1ccc(C(=O)Nc2ccc(-c3ccccc3)c3c2C(=O)NC3)cc1 [Example 100, 4-(Methylsulfonyl)-N-(3-oxo-7-phenylisoindolin-4-yl) benzamide] | > 20
7 | COc1ccc(-c2ccc(N)c3c2CNC3=O)cc1 [Example 60, 7-Amino-4-(4-methoxyphenyl)isoindolin-1-one] | > 20
8 | CN(C)CCNc1ccc(-c2ccccc2)c2c1C(=O)NC2 [Example 255, 7-((2-(Dimethylamino)ethyl)amino)-4-phenylisoindolin-1-one] | > 20
9 | COc1ccc(-c2ccc(NC(=O)c3ccccc3)c3c2CNC3=O)c(OC)c1 [Example 175, N-(7-(2,4-dimethoxyphenyl)-3-oxoisoindolin-4-yl)benzamide] | 3
10 | O=C(Nc1ccc(-c2ccc(F)c(F)c2)c2c1C(=O)NC2)c1ccccc1 [Example 33, N-(7-(3,4-difluorophenyl)-3-oxoisoindolin-4-yl)benzamide] | 3.7
11 | CS(=O)(=O)c1cccc(C(=O)Nc2ccc(-c3ccccc3)c3c2C(=O)NC3)c1 [Example 99, 3-(Methylsulfonyl)-N-(3-oxo-7-phenylisoindolin-4-yl) benzamide] | 4.3
12 | O=C(Nc1ccc(Nc2ccccc2)c2c1C(=O)NC2)c1ccccc1 [Example 409, N-(3-oxo-7-(phenylamino)isoindolin-4-yl)benzamide] | 0.32
13 | O=C(Nc1ccc(Nc2cc[nH]n2)c2c1C(=O)NC2)c1ccc(F)cc1 [Example 437] | 2.9
14 | O=C(Nc1ccc(-c2cncnc2)c2c1C(=O)NC2)c1ccccc1 [Example 154, N-(3-oxo-7-(pyrimidin-5-yl)isoindolin-4-yl)benzamide] | > 20
15 | CN(C)c1ccccc1C(=O)Nc1ccc(-c2ccccc2)c2c1C(=O)NC2 [Example 94, 2-(Dimethylamino)-N-(3-oxo-7-phenylisoindolin-4-yl) benzamide] | > 20
16 | Cc1ccc(-c2ccc(NC(=O)c3ccccc3)c3c2CNC3=O)cc1 [Example 209, N-(3-oxo-7-(p-tolyl)isoindolin-4-yl)benzamide] | 2.8
17 | O=C(Nc1ccc(Cc2ccccc2)c2c1C(=O)NC2)c1ccc(F)cc1 [Example 219, N-(7-benzyl-3-oxoisoindolin-4-yl)-4-fluorobenzamide] | 13.9
18 | CCc1ccc(-c2ccc(NC(=O)c3ccccc3)c3c2CNC3=O)cc1 [Example 39, N-(7-(4-ethylphenyl)-3-oxoisoindolin-4-yl)benzamide] | 6.1
19 | CCCCc1ccc(NC(=O)c2ccccc2)c2c1CNC2=O [Example 35, N-(7-butyl-3-oxoisoindolin-4-yl)benzamide] | 8.6

Continued, values first:

Row | IC50 [µM] | Structure (SMILES)
20 | 0.17 | O=C(Nc1ccc(-c2cccc(F)c2F)c2c1C(=O)NC2)c1ccc(NCCN2CCOCC2)cc1 [Example 359, N-(7-(2,3-difluorophenyl)-3-oxoisoindolin-4-yl)-4-((2-morpholinoethyl)amino)benzamide]
21 | 0.085 | COc1cccc(-c2ccc(NC(=O)c3ccc(NCCCN4CCOCC4)cc3)c3c2CNC3=O)c1OC [Example 296, N-(7-(2,3-dimethoxyphenyl)-3-oxoisoindolin-4-yl)-4-((3-morpholinopropyl)amino)benzamide]
22 | 0.45 | COc1c(F)cccc1-c1ccc(NC(=O)c2ccc(NCCN3CCCC3)cc2)c2c1CNC2=O [Example 313, N-(7-(3-fluoro-2-methoxyphenyl)-3-oxoisoindolin-4-yl)-4-((2-(pyrrolidin-1-yl)ethyl)amino)benzamide]
23 | 0.98 | COCCCNc1ccc(C(=O)Nc2ccc(-c3ccco3)c3c2C(=O)NC3)cc1 [Example 336, N-(7-(furan-2-yl)-3-oxoisoindolin-4-yl)-4-((3-methoxypropyl)amino)benzamide]
24 | > 20 | O=C1NCc2c(-c3ccccc3)ccc(NCCN3CCCC3)c21 [Example 262, 4-Phenyl-7-((2-(pyrrolidin-1-yl)ethyl)amino)isoindolin-1-one]
25 | 0.05 | COc1cccc(-c2ccc(NC(=O)c3ccc(NCCN4CCCC4)cc3)c3c2CNC3=O)c1OC [Example 299, N-(7-(2,3-dimethoxyphenyl)-3-oxoisoindolin-4-yl)-4-((2-(pyrrolidin-1-yl)ethyl)amino)benzamide]
26 | 1.3 | Cc1cccc(-c2ccc(NC(=O)c3ccccc3)c3c2CNC3=O)c1C [Example 16, N-(7-(2,3-dimethylphenyl)-3-oxoisoindolin-4-yl)benzamide]
27 | 0.37 | O=C(Nc1ccc(-c2ccco2)c2c1C(=O)NC2)c1ccc(NCCCN2CCCCC2)cc1 [Example 338, N-(7-(furan-2-yl)-3-oxoisoindolin-4-yl)-4-((3-(piperidin-1-yl)propyl)amino)benzamide]
28 | 0.043 | O=C(Nc1ccc(-c2cccc3ncoc23)c2c1C(=O)NC2)c1ccc(NCCN2CCCCC2)cc1 [Example 342, N-(7-(benzo[d]oxazol-7-yl)-3-oxoisoindolin-4-yl)-4-((2-(piperidin-1-yl)ethyl)amino)benzamide]
29 | 0.33 | O=C(Nc1ccc(-c2ccccc2)c2c1C(=O)NC2)c1ccc(NCCCO)cc1 [Example 382, 4-((3-Hydroxypropyl)amino)-N-(3-oxo-7-phenylisoindolin-4-yl) benzamide]
30 | 0.14 | CN(C)CCCNc1ccc(C(=O)Nc2ccc(Nc3ccccc3)c3c2C(=O)NC3)cc1 [Example 460, 4-((3-(Dimethylamino)propyl)amino)-N-(3-oxo-7-(phenylamino)isoindolin-4-yl)benzamide]
31 | 1.11 | O=C(Nc1ccc(-c2cc3ccccc3o2)c2c1C(=O)NC2)c1ccc(NCCN2CCCC2)cc1 [Example 384, N-(7-(benzofuran-2-yl)-3-oxoisoindolin-4-yl)-4-((2-(pyrrolidin-1-yl)ethyl)amino)benzamide]
32 | 8.9 | O=C(Nc1ccc(-c2cccc(F)c2Cl)c2c1C(=O)NC2)c1ccccc1 [Example 23, N-(7-(2-chloro-3-fluorophenyl)-3-oxoisoindolin-4-yl)benzamide]
33 | 1.27 | O=C(Nc1ccc(-c2ccco2)c2c1C(=O)NC2)c1ccc(F)cc1 [Example 158, 4-Fluoro-N-(7-(furan-2-yl)-3-oxoisoindolin-4-yl)benzamide]
34 | > 20 | COc1cccc(-c2ccc(NC(=O)c3ccccc3)c3c2CNC3=O)c1F [Example 24, N-(7-(2-fluoro-3-methoxyphenyl)-3-oxoisoindolin-4-yl)benzamide]
35 | 0.1 | COc1cccc(-c2ccc(NC(=O)c3ccc(NCCN(C)C)cc3)c3c2CNC3=O)c1OC [Example 301, N-(7-(2,3-dimethoxyphenyl)-3-oxoisoindolin-4-yl)-4-((2-(dimethylamino)ethyl)amino)benzamide]
36 | 0.18 | O=C(Nc1ccc(Nc2ccccc2)c2c1C(=O)NC2)c1ccc(NCCN2CCCCCC2)cc1 [Example 492, 4-((2-(Azepan-1-yl)ethyl)amino)-N-(3-oxo-7-(phenylamino)isoindolin-4-yl)benzamide]
37 | 0.18 | O=C(Nc1ccc(-c2ccco2)c2c1C(=O)NC2)c1ccc(NCCN2CCOCC2)cc1 [Example 290, N-(7-(furan-2-yl)-3-oxoisoindolin-4-yl)-4-((2-morpholinoethyl)amino)benzamide]
38 | 0.36 | O=C(Nc1ccc(-c2ccccc2)c2c1C(=O)NC2)c1ccc(NCCN2CCCC2)cc1 [Example 317, N-(3-oxo-7-phenylisoindolin-4-yl)-4-((2-(pyrrolidin-1-yl)ethyl)amino)benzamide]
39 | > 20 | O=C(Nc1ccc(C(=O)N2CCCC2)c2c1C(=O)NC2)c1ccc(F)cc1 [Example 391, 4-Fluoro-N-(3-oxo-7-(pyrrolidine-1-carbonyl)isoindolin-4-yl) benzamide]
40 | 0.13 | CC(=O)Nc1ccc(C(=O)Nc2ccc(-c3ccccc3)c3c2C(=O)NC3)cc1 [Example 116, 4-Acetamido-N-(3-oxo-7-phenylisoindolin-4-yl)benzamide]
41 | 2.8 | CCOc1ccccc1-c1ccc(NC(=O)c2ccccc2)c2c1CNC2=O [Example 182, N-(7-(2-ethoxyphenyl)-3-oxoisoindolin-4-yl)benzamide]
42 | 0.44 | Cc1cccc(Nc2ccc(NC(=O)c3ccc(NCCCN4CCCCC4)cc3)c3c2CNC3=O)c1 [Example 452, N-(3-oxo-7-(m-tolylamino)isoindolin-4-yl)-4-((3-(piperidin-1-yl)propyl)amino)benzamide]
43 | 0.16 | O=C(Nc1ccc(Nc2ccccc2)c2c1C(=O)NC2)c1ccc(NCCN2CCCC2)cc1 [Example 438, N-(3-oxo-7-(phenylamino)isoindolin-4-yl)-4-((2-(pyrrolidin-1-yl)ethyl)amino)benzamide]
44 | 0.075 | COc1cccc(-c2ccc(NC(=O)c3ccc(NCCN4CCOCC4)cc3)c3c2CNC3=O)c1OC [Example 297, N-(7-(2,3-dimethoxyphenyl)-3-oxoisoindolin-4-yl)-4-((2-morpholinoethyl)amino)benzamide]
